We go through 40 compounds from patent US20050070510A1, “Substituted tetracycline compounds as synergistic antifungal agents” (Paratek Pharmaceuticals, Inc., priority 2001, published 2005).

In the series the test system is COS-1 cells. In words: In vitro mammalian cytotoxicity assay (Resazurin). (The colour change of resazurin is a common sign of viable cells or microbes.)
Regarding `CN(C)[C@@H]1C(O)=C(C(N)=O)C(=O)[C@@]2(C#N)C(O)=C3C(=O)c4c(O)c(-c5ccc6c(c5)OCO6)cc(-c5ccc6c(c5)OCO6)c4C[C@@]3(N)C[C@@]12N` [LP], the “In Vitro Cytotoxicity” value is “** (toxicities less than 25 μg/mL are represented by **)”.
In the case of `CN(C)c1cc(C#CC(=O)O)c(O)c2c1C[C@@]1(N)C[C@@]3(N)[C@H](N(C)C)C(O)=C(C(N)=O)C(=O)[C@@]3(C#N)C(O)=C1C2=O` [HZ], the “In Vitro Cytotoxicity” value was “* (toxicities greater than >25 μg/ml are represented by *)”.
The result for `CCCC(Nc1ccc2c(c1O)C(=O)C1=C(O)[C@]3(C#N)C(=O)C(C(N)=O)=C(O)[C@@H](N(C)C)[C@]3(N)[C@@H](O)[C@]1(N)[C@H]2N)C(=O)OCC` (stereo partly shown) [CG] reads “** (toxicities less than 25 μg/mL are represented by **)”; that for `CC(C)COC(=O)Nc1cc(N(C)C)c2c(c1O)C(=O)C1=C(O)[C@]3(C#N)C(=O)C(C(N)=O)=C(O)[C@@H](N(C)C)[C@]3(N)C[C@]1(N)C2` [KQ], “** (toxicities less than 25 μg/mL are represented by **)”; that for `CCc1cc(CC)c2c(c1O)C(=O)C1=C(O)[C@]3(C#N)C(=O)C(C(N)=O)=C(O)[C@@H](N(C)C)[C@]3(N)C[C@]1(N)C2` [LF], “** (toxicities less than 25 μg/mL are represented by **)”.
Turning to `CN(C)[C@@H]1C(O)=C(C(N)=O)C(=O)[C@@]2(C#N)C(O)=C3C(=O)c4c(ccc(N(Cc5ccccc5)Cc5ccccc5)c4O)[C@H](N)[C@@]3(N)[C@H](O)[C@@]12N` [BP], the “In Vitro Cytotoxicity” value is recorded as “** (toxicities less than 25 μg/mL are represented by **)”.
Consider `CCCc1cc(CN)c(O)c2c1C[C@@]1(N)C[C@@]3(N)[C@H](N(C)C)C(O)=C(C(N)=O)C(=O)[C@@]3(C#N)C(O)=C1C2=O` [JS], for which the “In Vitro Cytotoxicity” value was “* (toxicities greater than >25 μg/ml are represented by *)”.
The result for `CN(C)[C@@H]1C(O)=C(C(N)=O)C(=O)[C@@]2(C#N)C(O)=C3C(=O)c4c(O)c(C(C)(C)C)cc(CN)c4C[C@@]3(N)C[C@@]12N` [RC] reads “* (toxicities greater than >25 μg/ml are represented by *)”.
For the compound `COc1ccc(CN(C)C)cc1-c1ccc(O)c2c1C[C@@]1(N)C[C@@]3(N)[C@H](N(C)C)C(O)=C(C(N)=O)C(=O)[C@@]3(C#N)C(O)=C1C2=O` [IM], the “In Vitro Cytotoxicity” value was “* (toxicities greater than >25 μg/ml are represented by *)”.
The result for `CN(C)[C@@H]1C(O)=C(C(N)=O)C(=O)[C@@]2(C#N)C(O)=C3C(=O)c4c(O)cccc4C(N)[C@@]3(N)[C@H](O)[C@@]12N` (stereo partly shown) [CZ] reads “** (toxicities less than 25 μg/mL are represented by **)”; that for `CN(C)c1cc(NCCc2ccccc2)c(O)c2c1C[C@@]1(N)C[C@@]3(N)[C@H](N(C)C)C(O)=C(C(N)=O)C(=O)[C@@]3(C#N)C(O)=C1C2=O` [LN], “** (toxicities less than 25 μg/mL are represented by **)”.
The same measure for `CN(C)[C@@H]1C(O)=C(C(N)=O)C(=O)[C@@]2(C#N)C(O)=C3C(=O)c4c(O)ccc(/C=C/C(=O)OC(C)(C)C)c4C[C@@]3(N)C[C@@]12N` [JD]: “* (toxicities greater than >25 μg/ml are represented by *)”; for `CCc1cc(C#Cc2ccc(OC)cc2)c(O)c2c1C[C@@]1(N)C[C@@]3(N)[C@H](N(C)C)C(O)=C(C(N)=O)C(=O)[C@@]3(C#N)C(O)=C1C2=O` [LH]: “** (toxicities less than 25 μg/mL are represented by **)”.
For the compound `Cc1cc(C)cc(-c2cc(N(C)C)c3c(c2O)C(=O)C2=C(O)[C@]4(C#N)C(=O)C(C(N)=O)=C(O)[C@@H](N(C)C)[C@]4(N)C[C@]2(N)C3)c1` [HD], the “In Vitro Cytotoxicity” value is on record as “** (toxicities less than 25 μg/mL are represented by **)”.
The result for `CCC(=O)O[C@H]1[C@@]2(N)C(=C(O)[C@]3(C#N)C(=O)C(C(N)=O)=C(O)[C@@H](N(C)C)[C@]13N)C(=O)c1c(ccc(C(C)(C)C)c1O)[C@@H]2N` [BC] reads “** (toxicities less than 25 μg/mL are represented by **)”; that for `Cc1ccc(CCc2ccc(O)c3c2CC2CC4[C@H](N(C)C)C(O)=C(C(N)=O)C(=O)[C@@]4(O)C(O)=C2C3=O)cc1` (stereo partly shown) [Compound HG], “** (toxicities less than 25 μg/mL are represented by **)”; that for `CN(C)c1cc(-c2ccc(Cl)cc2)c(O)c2c1C[C@@]1(N)C[C@@]3(N)[C@H](N(C)C)C(O)=C(C(N)=O)C(=O)[C@@]3(C#N)C(O)=C1C2=O` [EQ], “** (toxicities less than 25 μg/mL are represented by **)”.
The same measure for `CN(C)[C@@H]1C(O)=C(C(N)=O)C(=O)[C@@]2(C#N)C(O)=C3C(=O)c4c(O)c(C(C)(C)C)cc(C(=O)Cl)c4C[C@@]3(N)C[C@@]12N` [QA]: “** (toxicities less than 25 μg/mL are represented by **)”.
The same measure for `CN(C)[C@@H]1C(O)=C(C(N)=O)C(=O)[C@@]2(C#N)C(O)=C3C(=O)c4c(O)ccc(-c5cncc(Br)c5)c4C[C@@]3(N)C[C@@]12N` [VF]: “** (toxicities less than 25 μg/mL are represented by **)”.
As to `CN(C)c1cc(NCc2ccc(C#N)cc2)c(O)c2c1C[C@@]1(N)C[C@@]3(N)[C@H](N(C)C)C(O)=C(C(N)=O)C(=O)[C@@]3(C#N)C(O)=C1C2=O` [TU], the “In Vitro Cytotoxicity” value is “* (toxicities greater than >25 μg/ml are represented by *)”.
The same measure for `CCC(=O)O[C@H]1[C@@]2(N)C(=C(O)[C@]3(C#N)C(=O)C(C(N)=O)=C(O)[C@@H](N(C)C)[C@]13N)C(=O)c1c(O)ccc(I)c1[C@@H]2N` [CM]: “** (toxicities less than 25 μg/mL are represented by **)”.
The result for `CN(C)[C@@H]1C(O)=C(C(N)=O)C(=O)[C@@]2(C#N)C(O)=C3C(=O)c4c(O)ccc(-c5ccc(CNC(C)(C)C)o5)c4C[C@@]3(N)C[C@@]12N` [SY] reads “* (toxicities greater than >25 μg/ml are represented by *)”; that for `CN(C)[C@@H]1C(O)=C(C(N)=O)C(=O)[C@@]2(C#N)C(O)=C3C(=O)c4c(O)ccc(C(=O)Cc5ccccc5)c4C[C@@]3(N)C[C@@]12N` [MB], “* (toxicities greater than >25 μg/ml are represented by *)”; that for `CN(C)[C@@H]1C(O)=C(C(N)=O)C(=O)[C@@]2(C#N)C(O)=C3C(=O)c4c(ccc(NC(=O)OCC(C)(C)C)c4O)[C@H](N)[C@@]3(N)[C@H](O)[C@@]12N` [BI], “** (toxicities less than 25 μg/mL are represented by **)”.
With `COCCOC(=O)NCc1cc(N(C)C)c2c(c1O)C(=O)C1=C(O)[C@]3(C#N)C(=O)C(C(N)=O)=C(O)[C@@H](N(C)C)[C@]3(N)C[C@]1(N)C2` [MT], the “In Vitro Cytotoxicity” value is “* (toxicities greater than >25 μg/ml are represented by *)”.
The result for `CN(C)[C@@H]1C(O)=C(C(N)=O)C(=O)[C@@]2(C#N)C(O)=C3C(=O)c4c(O)ccc(-c5ccc(CN6CCCC6)c6ccccc56)c4C[C@@]3(N)C[C@@]12N` [OO] reads “** (toxicities less than 25 μg/mL are represented by **)”.
As to `CN(C)c1cc(NC(=O)CNC(C)(C)C)c(O)c2c1C[C@@]1(N)C[C@@]3(N)[C@H](N(C)C)C(O)=C(C(N)=O)C(=O)[C@@]3(C#N)C(O)=C1C2=O` [LC], the “In Vitro Cytotoxicity” value is listed as “* (toxicities greater than >25 μg/ml are represented by *)”.
As for `COc1cccc(C#Cc2ccc(O)c3c2C[C@@]2(N)C[C@@]4(N)[C@H](N(C)C)C(O)=C(C(N)=O)C(=O)[C@@]4(C#N)C(O)=C2C3=O)c1` [GU], the “In Vitro Cytotoxicity” value is listed as “** (toxicities less than 25 μg/mL are represented by **)”.
The same measure for `CCCCCC(=O)c1ccc(O)c2c1C[C@@]1(N)C[C@@]3(N)[C@H](N(C)C)C(O)=C(C(N)=O)C(=O)[C@@]3(C#N)C(O)=C1C2=O` [MO]: “** (toxicities less than 25 μg/mL are represented by **)”; for `CCCc1cccc(-c2ccc(O)c3c2C[C@@]2(N)C[C@@]4(N)[C@H](N(C)C)C(O)=C(C(N)=O)C(=O)[C@@]4(C#N)C(O)=C2C3=O)c1` [FY]: “** (toxicities less than 25 μg/mL are represented by **)”; for `CCC(CC)CCc1ccc(O)c2c1C[C@@]1(N)C[C@@]3(N)C(N(C)C)C(O)=C(C(N)=O)C(=O)[C@@]3(C#N)C(O)=C1C2=O` (stereo partly shown) [QX]: “** (toxicities less than 25 μg/mL are represented by **)”.
The same measure for `Cc1noc(C)c1S(=O)(=O)Nc1ccc2c(c1O)C(=O)C1=C(O)[C@]3(C#N)C(=O)C(C(N)=O)=C(O)[C@@H](N(C)C)[C@]3(N)C[C@]1(N)C2` [RI]: “** (toxicities less than 25 μg/mL are represented by **)”; for `CN(C)[C@@H]1C(O)=C(C(N)=O)C(=O)[C@@]2(C#N)C(O)=C3C(=O)c4c(O)ccc(-c5ccc(NC(=O)C6CC6)cc5)c4C[C@@]3(N)C[C@@]12N` [PB]: “* (toxicities greater than >25 μg/ml are represented by *)”; for `CCOC(=O)Nc1cc(N(C)C)c2c(c1O)C(=O)C1=C(O)[C@]3(C#N)C(=O)C(C(N)=O)=C(O)[C@@H](N(C)C)[C@]3(N)C[C@]1(N)C2` [KH]: “** (toxicities less than 25 μg/mL are represented by **)”.
The same measure for `COc1ccc(NC(=O)Nc2cc(N(C)C)c3c(c2O)C(=O)C2=C(O)[C@]4(C#N)C(=O)C(C(N)=O)=C(O)[C@@H](N(C)C)[C@]4(N)C[C@]2(N)C3)cc1` [IE]: “* (toxicities greater than >25 μg/ml are represented by *)”.
For the compound `CN(C)c1ccc(-c2ccc(O)c3c2C[C@@]2(N)C[C@@]4(N)[C@H](N(C)C)C(O)=C(C(N)=O)C(=O)[C@@]4(C#N)C(O)=C2C3=O)cc1` [EM], the “In Vitro Cytotoxicity” value was “** (toxicities less than 25 μg/mL are represented by **)”.
Consider `CN(C)Cc1ccc(-c2ccc(O)c3c2C[C@@]2(N)C[C@@]4(N)[C@H](N(C)C)C(O)=C(C(N)=O)C(=O)[C@@]4(C#N)C(O)=C2C3=O)cc1` [HR], for which the “In Vitro Cytotoxicity” value is “* (toxicities greater than >25 μg/ml are represented by *)”.
The result for `Cc1ccc(-c2ccc(O)c3c2C[C@@]2(N)C[C@@]4(N)[C@H](N(C)C)C(O)=C(C(N)=O)C(=O)[C@@]4(C#N)C(O)=C2C3=O)cc1` [FR] reads “** (toxicities less than 25 μg/mL are represented by **)”; that for `CN(C)c1cc(CNCC2CCCCC2)c(O)c2c1C[C@@]1(N)C[C@@]3(N)[C@H](N(C)C)C(O)=C(C(N)=O)C(=O)[C@@]3(C#N)C(O)=C1C2=O` [TB], “* (toxicities greater than >25 μg/ml are represented by *)”; that for `Cc1sc(Nc2ccc3c(c2O)C(=O)C2=C(O)[C@]4(C#N)C(=O)C(C(N)=O)=C(O)[C@@H](N(C)C)[C@]4(N)[C@@H](O)[C@]2(N)[C@H]3O)nc1-c1ccccc1` [DW], “** (toxicities less than 25 μg/mL are represented by **)”.
